Assay results reported in patent publication US8106197B2, “Aminoheteroaryl compounds as protein kinase inhibitors” (Pfizer Inc., priority 2003, dated 2012).

Molecular target: T1, HGFR (Homo sapiens, UniProt P08581)
T1 construct: purchased Upstate 14-526
Assay: HGFR continuous-coupled spectrophotometric assay
Type: biochemical
Conditions: not given

T1 sequence (P08581 974-1390 limits assumed): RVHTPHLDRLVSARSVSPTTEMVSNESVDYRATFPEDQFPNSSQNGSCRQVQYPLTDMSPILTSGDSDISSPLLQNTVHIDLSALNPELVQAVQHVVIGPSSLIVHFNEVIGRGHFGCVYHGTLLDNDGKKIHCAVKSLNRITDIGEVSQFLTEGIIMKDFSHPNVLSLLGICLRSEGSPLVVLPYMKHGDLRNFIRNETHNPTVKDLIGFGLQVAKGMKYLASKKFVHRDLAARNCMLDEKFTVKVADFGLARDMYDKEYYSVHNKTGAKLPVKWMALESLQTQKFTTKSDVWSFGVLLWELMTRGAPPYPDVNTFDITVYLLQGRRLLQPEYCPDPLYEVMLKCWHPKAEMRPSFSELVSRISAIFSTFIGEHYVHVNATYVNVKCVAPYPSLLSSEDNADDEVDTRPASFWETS

Row | SMILES | % inhibition | inhibition at 1 µM [%]
1 | CN(C)CCNC(=O)c1cccc(COc2cc(-c3ccc(C(=O)N4CCC(N5CCCC5)CC4)cc3)cnc2N)c1 | % inhibition = 20 | –
2 | Nc1ncc(-c2ccc(C(=O)N3CCC(N4CCCC4)CC3)cc2)cc1OCc1nc2ccccc2s1 | % inhibition = 17 | –
3 | Cc1ccn2cc(COc3cc(-c4ccc(C(=O)N5CCC(N6CCCC6)CC5)cc4)cnc3N)nc2c1 | % inhibition = 18 | –
4 | Nc1ncc(-c2ccc(C(=O)N3CCC(N4CCCC4)CC3)cc2)cc1OCc1ccc(Cl)s1 | % inhibition = 19 | –
5 | Nc1ncc(-c2ccc(C(=O)N3CCC(N4CCCC4)CC3)cc2)cc1OCc1cccc(CO)n1 | % inhibition = 15 | –
6 | Nc1ncc(-c2ccc(C(=O)N3CCC(N4CCCC4)CC3)cc2)cc1OCc1cccc(Oc2ccccc2)c1 | % inhibition = 34 | –
7 | Nc1ccc(-c2ccc(C(=O)N3CCC(N4CCCC4)CC3)cc2)cc1OC1OC(=O)c2ccccc21 (stereo not drawn) | % inhibition = 4 | –
8 | Cc1cc(C)cc(COc2cc(-c3ccc(C(=O)N4CCC(N5CCCC5)CC4)cc3)cnc2N)c1 | % inhibition = 14 | –
9 | Cc1noc(C)c1-c1nc(COc2cc(-c3ccc(C(=O)N4CCC(N5CCCC5)CC4)cc3)cnc2N)no1 | % inhibition = 6 | –
10 | CCOC(=O)CCNC(=O)c1cccc(COc2cc(-c3ccc(C(=O)N4CCC(N5CCCC5)CC4)cc3)cnc2N)c1 | % inhibition = 14 | –
11 | Cn1nc(C2CC2)nc1COc1cc(-c2ccc(C(=O)N3CCC(N4CCCC4)CC3)cc2)cnc1N | % inhibition = 5 | –
12 | Nc1ncc(-c2ccc(C(=O)N3CCC(N4CCCC4)CC3)cc2)cc1OCc1nc2ccccc2[nH]1 | % inhibition = 4 | –
13 | Nc1ncc(-c2ccc(C(=O)N3CCC(N4CCCC4)CC3)cc2)cc1OCc1cc(F)cc(C(F)(F)F)c1 | % inhibition = 12 | –
14 | Cc1oc(-c2ccc(F)cc2)nc1COc1cc(-c2ccc(C(=O)N3CCC(N4CCCC4)CC3)cc2)cnc1N | % inhibition = 17 | –
15 | Cc1onc(-c2ccccc2)c1COc1cc(-c2ccc(C(=O)N3CCC(N4CCCC4)CC3)cc2)cnc1N | % inhibition = 19 | –
16 | CCc1ccc(COc2cc(-c3ccc(C(=O)N4CCC(N5CCCC5)CC4)cc3)cnc2N)nc1 | % inhibition = 15 | –
17 | CS(=O)(=O)c1ccc(COc2cc(-c3ccc(C(=O)N4CCC(N5CCCC5)CC4)cc3)cnc2N)cc1 | % inhibition = 11 | –

Row | SMILES | % inhibition | inhibition at 1 µM [%]
18 | CCOC(=O)c1nc(COc2cc(-c3ccc(C(=O)N4CCC(N5CCCC5)CC4)cc3)cnc2N)no1 | % inhibition = 8 | –
19 | COc1ccc2sc(COc3cc(-c4ccc(C(=O)N5CCC(N6CCCC6)CC5)cc4)cnc3N)cc2c1 | % inhibition = 13 | –
20 | Nc1ncc(-c2ccc(C(=O)N3CCC(N4CCCC4)CC3)cc2)cc1OCc1ccc(C(=O)NCc2cccnc2)cc1 | % inhibition = 15 | –
21 | Nc1ncc(-c2ccc(C(=O)N3CCC(N4CCCC4)CC3)cc2)cc1OCc1c(F)ccc(F)c1Cl | % inhibition = 50 | –
22 | Nc1ncc(-c2ccc(C(=O)N3CCC(N4CCCC4)CC3)cc2)cc1OCc1cc(F)c(F)cc1F | % inhibition = 12 | –
23 | CCOC(=O)CCNS(=O)(=O)c1ccc(COc2cc(-c3ccc(C(=O)N4CCC(N5CCCC5)CC4)cc3)cnc2N)cc1 | % inhibition = 15 | –
24 | Nc1ncc(-c2ccc(C(=O)N3CCC(N4CCCC4)CC3)cc2)cc1OCc1csc(-c2ccc(Cl)cc2)n1 | % inhibition = 9 | –
25 | Nc1ncc(-c2ccc(C(=O)N3CCC(N4CCCC4)CC3)cc2)cc1OCc1nnsc1Cl | % inhibition = 10 | –
26 | Nc1ncc(-c2ccc(C(=O)N3CCC(N4CCCC4)CC3)cc2)cc1OCc1ccncc1 | % inhibition = 10 | –
27 | Nc1ncc(-c2ccc(C(=O)N3CCC(N4CCCC4)CC3)cc2)cc1OCc1cscn1 | % inhibition = 12 | –
28 | Nc1ncc(-c2ccc(C(=O)N3CCC(N4CCCC4)CC3)cc2)cc1OCc1nc2cccnc2[nH]1 | % inhibition = 17 | –
29 | COc1cc(COc2cc(-c3ccc(C(=O)N4CCC(N5CCCC5)CC4)cc3)cnc2N)cc(OC)c1 | % inhibition = 17 | –
30 | Nc1ncc(-c2ccc(C(=O)N3CCC(N4CCCC4)CC3)cc2)cc1OCc1c(F)cccc1C(F)(F)F | % inhibition = 31 | –
31 | CCN(CC)c1ccc(NC(=O)c2ccc(COc3cc(-c4ccc(C(=O)N5CCC(N6CCCC6)CC5)cc4)cnc3N)cc2)cc1 | % inhibition = 47 | –
32 | Nc1ncc(C(=O)N2CCC(=O)CC2)cc1OCc1c(Cl)cccc1Cl | – | 44
33 | Cc1cc(=O)n2nc(COc3cc(-c4ccc(C(=O)N5CCC(N6CCCC6)CC5)cc4)cnc3N)nc2[nH]1 | % inhibition = 18 | –

Same assay, conditions: Table 3; Ki(μM) or I(%)

Row | SMILES | Ki [µM]
34 | CC(Oc1cc(-c2ccccc2F)cnc1N)c1c(Cl)ccc(F)c1Cl (stereo not drawn) [Example I-563, 3-[1-(2,6-Dichloro-3-fluoro-phenyl)-ethoxy]-5-(2-fluoro-phenyl)-pyridin-2-ylamine] | 0.433

Same assay, conditions: Table 3; Ki(μM) or I(%); test concentration not given

Row | SMILES | I(%)
35 | Nc1ncc(-c2ccc(C(=O)N3CCC(N4CCCC4)CC3)cc2)cc1OCC1CCCCC1 [Example I-628, [4-(6-Amino-5-cyclohexylmethoxy-pyridin-3-yl)-phenyl]-(4-pyrrolidin-1-yl-piperidin-1-yl)-methanone] | 7
36 | CC(Oc1cc(-c2ccc(C(=O)N3CCC(N4CCCC4)CC3)cc2)cnc1N)c1ccc(C(=O)NCCc2cccc(O)c2)cc1 (stereo not drawn) [Example I-629, 4-(1-{2-Amino-5-[4-(4-pyrrolidin-1-yl-piperidine-1-carbonyl)-phenyl]-pyridin-3-yloxy}-ethyl)-[2-(3-hydroxy-phenyl)-ethyl]-benzamide] | 7
37 | CCN1CCN(C(=O)c2ccc(-c3cnc(N)c(OCc4ccccc4)c3)cc2)CC1 [Example I-623, [4-(6-Amino-5-benzyloxy-pyridin-3-yl)-phenyl]-(4-ethyl-piperazin-1-yl)-methanone] | 7
38 | COc1cccc(OC)c1-c1cnc(N)c(OC(C)c2c(Cl)ccc(F)c2Cl)c1 (stereo not drawn) [Example I-558, 3-[1-(2,6-Dichloro-3-fluoro-phenyl)-ethoxy]-5-(2,6-dimethoxy-phenyl)-pyridin-2-ylamine] | 2
39 | Cc1cc(C)c(C)c(COc2cc(-c3ccc(C(=O)N4CCC(N5CCCC5)CC4)cc3)cnc2N)c1C [Example I-654, {4-[6-Amino-5-(2,3,5,6-tetramethyl-benzyloxy)-pyridin-3-yl]-phenyl)-(4-pyrrolidin-1-yl-piperidin-1-yl)-methanone] | 9
40 | COc1cc(C(=O)N2C[C@@H](C)N[C@@H](C)C2)cc(OC)c1-c1cnc(N)c(OC(C)c2c(Cl)ccc(F)c2Cl)c1 (stereo partly drawn) [Example I-550, (4-{6-Amino-5-[1-(2,6-dichloro-3-fluoro-phenyl)-ethoxy]-pyridin-3-yl)-3,5-dimethoxy-phenyl)-(dimethyl-piperazin-1-yl)-methanone] | 15

Same assay, conditions: Table 5; percent c-MET inhibition at 50 nM

Row | SMILES | inhibition at 0.05 µM [%]
41 | CC(Oc1cc(-c2ccc(C(=O)N[C@H](CO)C(C)C)cc2)cnc1N)c1c(Cl)ccc(F)c1Cl (stereo partly drawn) | 74
42 | CC(Oc1cc(-c2ccc(C(=O)N3CCC(Cc4ccccc4)C3)cc2)cnc1N)c1c(Cl)ccc(F)c1Cl (stereo not drawn) | 59
43 | CC(Oc1cc(-c2ccc(C(=O)N3CCN(CCC#N)CC3)cc2)cnc1N)c1c(Cl)ccc(F)c1Cl (stereo not drawn) | 77
44 | COc1ccc(C(NC(=O)c2ccc(-c3cnc(N)c(OC(C)c4c(Cl)ccc(F)c4Cl)c3)cc2)C2CC2)cc1 (stereo not drawn) | 67
45 | CC(Oc1cc(-c2ccc(C(=O)NCC(c3ccc[nH]3)C(F)(F)F)cc2)cnc1N)c1c(Cl)ccc(F)c1Cl (stereo not drawn) | 70

Same assay, conditions: Table 6; percent c-MET inhibition at 1 μM; read-out: % inhibition

Row | SMILES | inhibition at 1 µM [%]
46 | COc1ccc(C(NC(=O)c2cnc(N)c(OCc3c(Cl)cccc3Cl)c2)C2CC2)cc1 (stereo not drawn) | 27
47 | Nc1ncc(C(=O)NC2COC3(CCN(c4ncccn4)CC3)C2)cc1OCc1c(Cl)cccc1Cl (stereo not drawn) | 21
48 | Nc1ncc(C(=O)N2CCC3(CC2)CC(N2CCNC(=O)C2)CO3)cc1OCc1c(Cl)cccc1Cl (stereo not drawn) | 17
49 | Nc1ncc(C(=O)NCCCN2CCOCC2)cc1OCc1c(Cl)cccc1Cl | 26
50 | Nc1ncc(C(=O)NCCC2CCOCC2)cc1OCc1c(Cl)cccc1Cl | 31
51 | Nc1ncc(C(=O)NCc2ccc(C(F)(F)F)nc2)cc1OCc1c(Cl)cccc1Cl | 17
52 | Nc1ncc(C(=O)N2CCCC(N3CCOCC3)CC2)cc1OCc1c(Cl)cccc1Cl (stereo not drawn) | 18
53 | CN(C)CCNC(=O)c1cnc(N)c(OCc2c(Cl)cccc2Cl)c1 | 29
54 | Nc1ncc(C(=O)NC2CCSC2=O)cc1OCc1c(Cl)cccc1Cl (stereo not drawn) | 35
55 | Nc1ncc(C(=O)N2CCC(COc3cccc4cccnc34)C2)cc1OCc1c(Cl)cccc1Cl (stereo not drawn) | 35
56 | Nc1ncc(C(=O)NCc2ncccc2O)cc1OCc1c(Cl)cccc1Cl | 24
57 | Nc1ncc(C(=O)NCc2ccc(F)cc2)cc1OCc1c(Cl)cccc1Cl | 32
58 | COCCN1CCN(C(=O)c2cnc(N)c(OCc3c(Cl)cccc3Cl)c2)CC1 | 27
59 | Nc1ncc(C(=O)N[C@@H]2CCC[C@H]2OCc2ccccc2)cc1OCc1c(Cl)cccc1Cl | 16
60 | CN(CCC(O)c1ccccc1)C(=O)c1cnc(N)c(OCc2c(Cl)cccc2Cl)c1 (stereo not drawn) | 28
61 | NC(=O)CCNC(=O)c1cnc(N)c(OCc2c(Cl)cccc2Cl)c1 | 28
62 | Nc1ncc(C(=O)N2CCC(Cc3cccc(CO)c3)CC2)cc1OCc1c(Cl)cccc1Cl | 11
63 | Nc1ncc(C(=O)N2CCCC(O)C2)cc1OCc1c(Cl)cccc1Cl (stereo not drawn) | 33
64 | Nc1ncc(C(=O)NCCc2nc3ccccc3s2)cc1OCc1c(Cl)cccc1Cl | 26
65 | Nc1ncc(C(=O)NCCc2cccc(O)c2)cc1OCc1c(Cl)cccc1Cl | 17
66 | CC(C)NC(=O)CN1CCN(C(=O)c2cnc(N)c(OCc3c(Cl)cccc3Cl)c2)CC1 | 30
67 | CC(C)CCNC(=O)C1CC12CCN(C(=O)c1cnc(N)c(OCc3c(Cl)cccc3Cl)c1)CC2 (stereo not drawn) | 21
68 | Nc1ncc(C(=O)N2CCC(Cc3cnccn3)CC2)cc1OCc1c(Cl)cccc1Cl | 72
69 | Nc1ncc(C(=O)NC2COC3(CCN(Cc4ccncc4)CC3)C2)cc1OCc1c(Cl)cccc1Cl (stereo not drawn) | 20
70 | COc1cc(CCNC(=O)c2cnc(N)c(OCc3c(Cl)cccc3Cl)c2)cc(OC)c1O | 25
71 | NC(=O)C1CCCN(C(=O)c2cnc(N)c(OCc3c(Cl)cccc3Cl)c2)C1 (stereo not drawn) | 39
72 | CN(C)C(=O)c1cnc(N)c(OCc2c(Cl)cccc2Cl)c1 | 10
